Experimental findings from patent publication US6967196B1, “Sulfonamide compounds and uses thereof” (Bristol-Myers Squibb Company, priority 1999, dated 2005) are described below.

Where only a bound is given, the exact number is not on record here.

The test system of one assay is amyloid β production in transfected H4 (human neuroglioma) cells stably expressing APP constructs. In words: In vitro cell-based assay of inhibitors of amyloid β production (ELISA). Particulars: transfected H4 cells stably expressing APP; approx. 16 h incubation; amyloid β in medium by ELISA; read-out: ACTIVITY (IC50, inhibition of amyloid β production). As to the method:
In Vitro Cell-Based Assay of Inhibitors of Amyloid β Production
Transfected H4 (human neuroglioma) cells stably expressing APP constructs are used to identify and assess inhibitors of Aβ production. In brief, cells lines are exposed to compounds, and the effect of each compound on amyloid β production is determined by measuring the amount of amyloid β produced using an enzyme linked immunosorbent assay (ELISA) that detects amyloid β (see, for example, Seubert et al., (1992) Nature, 359:325-327).
Transfected cells that stably express wild-type and variant forms of APP are plated in 96-well format plates at a density sufficient for the rapid detection of the secreted amyloid β (experimentally predetermined for a particular stable cell population). Cells are plated at least six hours prior to the introduction of the test compound at which time the growth medium is replaced by fresh medium containing the compound to be tested. All synthetic agents are initially screened at doses ranging from 10-100 μM. Higher dilutions of agents can be used to minimize cytotoxicity. Incubation of cells with a test compound continues for approximately 16 hours at which time aliquots of medium from each well are removed and assayed for amyloid β.
ELISA is carried out by methods known in the art (see, e.g., Haass et al., Antibodies: A Laboratory Manual, Harlow and lane, Editors, Cold Spring Harbor Press, 1988) The capture antibody is typically a mouse monoclonal (IgG1/kβ-APPa) which recognizes the carboxyl terminal epitope of amyloid β. The specificity of the capture antibody insures measurement of amyloid β without interference from other secreted APP fragments that share amino acid sequence (amyloid β 1-16) homology with amyloid β but lack the carboxy-terminal region. The detecting antibody is typically an affinity-purified rabbit polyclonal antibody that is specific for the amino terminus of amyloid β.
Results from test compounds are compared to results obtained when cells are treated with control agents. Amyloid β levels are determined by comparison to a standard curve obtained by subjecting a range of known amounts of amyloid β to the ELISA.
A compound is identified as “active” when it inhibits cellular production of amyloid β relative to levels in control samples by at least 50% at the initial tested concentration without significant cytotoxicity. Active compounds are then assayed in dose-response experiments to determine the lowest dose of compound necessary for inhibition of amyloid β production.
“2,2,2-trichloro-N-{2-[2-(1-{[(4-chlorophenyl)sulfonyl]-2,5-difluoroanilino}ethyl)phenoxy]ethyl}-N-ethylacetamide [Example 744]”: the half-inhibitory concentration (IC50) (in general, the concentration that inhibits the measured activity by half) is 100 to 500 nM.

Consider “2,4,6-trichloro-N-{3-[2-(1-{[(4-chlorophenyl)sulfonyl]-2,5-difluoroanilino}ethyl)phenoxy]propyl}-N-methylbenzamide [Example 713]”, for which the IC50 was in the range of 100 to 500 nM.

For the substance “2,4,6-trichloro-N-{3-[2-(1-{[(4-chlorophenyl)sulfonyl]-2,5-difluoroanilino}ethyl)phenoxy]propyl}benzamide [Example 728]”, the concentration for half-maximal inhibition (IC50) is 100 to 500 nM.

In the case of “2,4-dichloro-N-{3-[2-(1-{[(4-chlorophenyl)sulfonyl]-2,5-difluoroanilino}ethyl)phenoxy]propyl}-5-fluoro-N-methylbenzamide [Example 750]”, the IC50 fell in the range of 100 to 500 nM.

In the case of “2,4-dichloro-N-{3-[2-(1-{[(4-chlorophenyl)sulfonyl]-2,5-difluoroanilino}ethyl)phenoxy]propyl}-5-fluorobenzamide [Example 682]”, the IC50 lay within 100 to 500 nM.

Regarding “2,4-dichloro-N-{3-[2-(1-{[(4-chlorophenyl)sulfonyl]-2,5-difluoroanilino}ethyl)phenoxy]propyl}-N-methylbenzenesulfonamide [Example 647]”, the IC50 fell in the range of 100 to 500 nM.

As to “2-((1R)-1-{[(4-chlorophenyl)-sulfonyl]-2,5-difluoroanilino}ethyl)benzyl benzyl(methyl)carbamate [Example 715]”, the half-maximal inhibitory concentration (IC50) was 100 to 500 nM.

For the substance “2-((1R)-1-{[(4-chlorophenyl)sulfonyl]-2,5-difluoroanilino}ethyl)-5-fluorobenzyl 2-methoxyethylcarbamate [Example 729]”, the IC50 was in the range of 100 to 500 nM.

Turning to “2-((1R)-1-{[(4-chlorophenyl)sulfonyl]-2,5-difluoroanilino}ethyl)-5-fluorobenzyl 2-phenylethylcarbamate [Example 640]”, the IC50 fell in the range of 100 to 500 nM.

In the case of “2-((1R)-1-{[(4-chlorophenyl)sulfonyl]-2,5-difluoroanilino}ethyl)-5-fluorobenzyl 3-fluorobenzylcarbamate [Example 764]”, the IC50 fell in the range of 100 to 500 nM.

As to “2-((1R)-1-{[(4-chlorophenyl)sulfonyl]-2,5-difluoroanilino}ethyl)-5-fluorobenzyl 4-(trifluoromethyl)benzylcarbamate [Example 658]”, the IC50 lay within 100 to 500 nM.

As to “2-((1R)-1-{[(4-chlorophenyl)sulfonyl]-2,5-difluoroanilino}ethyl)-5-fluorobenzyl bis(2-methoxyethyl)carbamate [Example 760]”, the half-maximal inhibitory concentration (IC50) was 100 to 500 nM.

For “2-((1R)-1-{[(4-chlorophenyl)sulfonyl]-2,5-difluoroanilino}ethyl)-5-fluorobenzyl sec-butylcarbamate [Example 795]”, the 50% inhibitory concentration (IC50) lay within 100 to 500 nM.

For the substance “2-((1R)-1-{[(4-chlorophenyl)sulfonyl]-2,5-difluoroanilino}ethyl)benzyl 1,2,3,4-tetrahydro-1-naphthalenylcarbamate [Example 660]”, the IC50 was 100 to 500 nM.

In the case of “2-((1R)-1-{[(4-chlorophenyl)sulfonyl]-2,5-difluoroanilino}ethyl)benzyl 2,5-difluorobenzylcarbamate [Example 639]”, the IC50 lay in the range of 100 to 500 nM.

Turning to “2-((1R)-1-{[(4-chlorophenyl)sulfonyl]-2,5-difluoroanilino}ethyl)benzyl 2-(4-chlorophenyl)ethylcarbamate [Example 731]”, the IC50 fell in the range of 100 to 500 nM.

For the substance “2-((1R)-1-{[(4-chlorophenyl)sulfonyl]-2,5-difluoroanilino}ethyl)benzyl 2-(diethylamino)ethylcarbamate [Example 662]”, the IC50 lay in the range of 100 to 500 nM.

With “2-((1R)-1-{[(4-chlorophenyl)sulfonyl]-2,5-difluoroanilino}ethyl)benzyl 2-methoxyethylcarbamate [Example 669]”, the IC50 fell in the range of 100 to 500 nM.

On to “2-((1R)-1-{[(4-chlorophenyl)sulfonyl]-2,5-difluoroanilino}ethyl)benzyl 2-phenylethylcarbamate [Example 743]”, for which the IC50 was 100 to 500 nM.

As for “2-((1R)-1-{[(4-chlorophenyl)sulfonyl]-2,5-difluoroanilino}ethyl)benzyl 2-phenylpropylcarbamate [Example 799]”, the concentration for half-maximal inhibition (IC50) is 100 to 500 nM.

As for “2-((1R)-1-{[(4-chlorophenyl)sulfonyl]-2,5-difluoroanilino}ethyl)benzyl 4-fluorobenzylcarbamate [Example 748]”, the IC50 was 100 to 500 nM.

“2-((1R)-1-{[(4-chlorophenyl)sulfonyl]-2,5-difluoroanilino}ethyl)benzyl butyl(methyl)carbamate [Example 720]”: the IC50 is 100 to 500 nM.

Take “2-((1R)-1-{[(4-chlorophenyl)sulfonyl]-2,5-difluoroanilino}ethyl)benzyl cyclohexylcarbamate [Example 675]”: the IC50 was 100 to 500 nM.

For “2-((1R)-1-{[(4-chlorophenyl)sulfonyl]-2,5-difluoroanilino}ethyl)benzyl isopropylcarbamate [Example 674]”, the IC50 lay in the range of 100 to 500 nM.

“2-((1R)-1-{[(4-chlorophenyl)sulfonyl]-2,5-difluoroanilino}ethyl)benzyl sec-butylcarbamate [Example 758]”: the IC50 is 100 to 500 nM.

As to “2-({[(4-chlorophenyl)sulfonyl]-2,5-difluoroanilino}methyl)phenyl acrylate [Example 681]”, the IC50 fell in the range of 100 to 500 nM.

The same assay, now with this note: transfected H4 cells stably expressing APP; approximately 16 hours incubation; amyloid β in medium by ELISA; Table B; read-out: ACTIVITY (IC50, inhibition of amyloid β production).
Take “2-((1R)-1-{[(4-chlorophenyl)sulfonyl]-2,5-difluoroanilino}ethyl)benzyl 1-piperidinecarboxylate [Example 284]”: the IC50 was in the range of 25 to 50 nM.

The same assay, now with this note: transfected H4 cells stably expressing APP; approximately 16 hours incubation; amyloid β in medium by ELISA; read-out: ACTIVITY (IC50, inhibition of amyloid β production).
As to “1-{3-[2-({[(4-chlorophenyl)sulfonyl]-2,5-difluoroanilino}methyl)phenoxy]propyl}-1-methylpiperidinium iodide [Example 1037]”, the concentration for half-maximal inhibition (IC50) is > 500 nM.

As to “2,2,2-trichloro-N-{3-[2-({[(4-chlorophenyl)sulfonyl]-2,5-difluoroanilino}ethyl)phenoxy]propyl(methyl)carbamate [Example 876]”, the IC50 was 100 to 500 nM.

On to “2,2,2-trichloro-N-{3-[2-({[(4-chlorophenyl)sulfonyl]-2,5-difluoroanilino}methyl)phenoxy]propyl}-N-methylacetamide [Example 853]”, for which the IC50 was in the range of 100 to 500 nM.

On to “2,4-dichloro-N-{3-[2-(1-{[(4-chlorophenyl)sulfonyl]-2,5-difluoroanilino}ethyl)phenoxy]propyl}-N-methylbenzamide [Example 839]”, for which the IC50 fell in the range of 100 to 500 nM.

In the case of “2,4-dichloro-N-{3-[2-({[(4-chlorophenyl)sulfonyl]-2,5-difluoroanilino}methyl)phenoxy]propyl}-5-fluoro-N-methylbenzamide [Example 896]”, the IC50 was > 500 nM.

In the case of “2-((1R)-1-{[(4-chlorophenyl)sulfonyl]-2,5-difluoroanilino}ethyl)-5-fluorobenzyl 2-(1-pyrrolidinyl)ethylcarbamate [Example 914]”, the IC50 was > 500 nM.

For the substance “2-((1R)-1-{[(4-chlorophenyl)sulfonyl]-2,5-difluoroanilino}ethyl)benzyl 3,4-difluorobenzylcarbamate [Example 961]”, the IC50 was > 500 nM.

For the substance “2-((1R)-1-{[(4-chlorophenyl)sulfonyl]-2,5-difluoroanilino}ethyl)benzyl 3-fluorobenzylcarbamate [Example 910]”, the IC50 was > 500 nM.

In the case of “2-((1R)-1-{[(4-chlorophenyl)sulfonyl]-2,5-difluoroanilino}ethyl)benzyl (1S)-1-phenylethylcarbamate [Example 823]”, the IC50 was 100 to 500 nM.

With “2-((1R)-1-{[(4-chlorophenyl)sulfonyl]-2,5-difluoroanilino}ethyl)benzyl benzyl[2-(dimethylamino)ethyl]carbamate [Example 838]”, the IC50 lay in the range of 100 to 500 nM.

On to “2-((1R)-1-{[(4-chlorophenyl)sulfonyl]-2,5-difluoroanilino}ethyl)benzyl benzylcarbamate [Example 825]”, for which the IC50 is 100 to 500 nM.

Consider “2-((1R)-1-{[(4-chlorophenyl)sulfonyl]-2,5-difluoroanilino}ethyl)benzyl diethylcarbamate [Example 894]”, for which the concentration for half-maximal inhibition (IC50) was > 500 nM.

As for “2-({[(4-chlorophenyl)sulfonyl]anilino}methyl)phenyl trifluoromethanesulfonate [Example 1004]”, the IC50 was > 500 nM.
